Numbers after ± are expanded uncertainties.

For this data set the following is noted: 298.15 K; 101.33 kPa; Liquid; Vibrating tube method.
A word on the mass density: it is mass per unit of volume. For `CCCCCCO` [hexan-1-ol], the mass density is given as 814.94 ± 1 kg/m3.

Regarding `CCCC[N+]1(C)CCCC1.N#CC(=C=[N-])C#N` [1-butyl-1-methylpyrrolidinium tricyanomethanide], the mass density worked out at 1006.75 ± 1.3 kg/m3.

Take `CCCCCCCCCCO` [decan-1-ol]: the mass density is recorded as 826.38 ± 1 kg/m3.

Regarding `CCc1ccccc1` [ethylbenzene], the mass density stood at 862.97 ± 1 kg/m3.

Take `c1ccsc1` [thiophene]: the mass density was determined as 1058.48 ± 1 kg/m3.

`Cc1ccccc1` [toluene]: the mass density is on record as 863.67 ± 1 kg/m3.

`CCCC[N+]1(C)CCOCC1.N#C[C-](C#N)C#N` [4-butyl-4-methylmorpholinium tricyanomethanide]: the mass density worked out at 1067.06 ± 1.3 kg/m3.

For `CCCCCCCCO` [octan-1-ol], the mass density is reported as 823.27 ± 1 kg/m3.

Consider `c1ccccc1` [benzene], for which the mass density worked out at 873.53 ± 1 kg/m3.

With `CCCCCCC` [heptane], the mass density is on record as 679.55 ± 1 kg/m3.

(Values after the NIST ThermoML archive (doi:10.1016/j.fluid.2014.12.003).)
